Source: ChEMBL document CHEMBL1177853, “Synthesis and pharmacological evaluation of novel substituted 9-deazaxanthines as A2B receptor antagonists” (Eur J Med Chem, 2010)

Legend:
[1] = target: T1, Adenosine receptor A2a (Homo sapiens, UniProt P29274); experiment: Displacement of [3H]ZM241385 from human recombinant adenosine A2A receptor expressed in human HeLa cells at 1 uM after 30 mins; format: cell-based
[2] = target: T2, Adenosine receptor A1 (Homo sapiens) (UniProt P30542); experiment: Displacement of [3H]DPCPX from human recombinant adenosine A1 receptor expressed in CHO-A1 cells at 1 uM after 60 mins; format: cell-based
T2 sequence (whole entry): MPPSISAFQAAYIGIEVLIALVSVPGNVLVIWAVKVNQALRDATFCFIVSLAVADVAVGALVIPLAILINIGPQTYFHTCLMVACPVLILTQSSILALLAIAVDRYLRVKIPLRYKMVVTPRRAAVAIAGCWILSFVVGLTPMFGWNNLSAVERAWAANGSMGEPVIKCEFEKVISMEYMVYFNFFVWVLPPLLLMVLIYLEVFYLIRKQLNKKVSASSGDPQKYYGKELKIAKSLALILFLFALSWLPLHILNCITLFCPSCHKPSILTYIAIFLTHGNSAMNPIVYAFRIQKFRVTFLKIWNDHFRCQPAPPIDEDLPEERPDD

[3] = target: T3, Adenosine receptor A3 (Homo sapiens) (UniProt P0DMS8); experiment: Displacement of [3H]NECA from human recombinant adenosine A3 receptor expressed in human HeLa cells at 1 uM after 180 mins by scintillation counting; format: cell-based
T3 sequence (whole entry): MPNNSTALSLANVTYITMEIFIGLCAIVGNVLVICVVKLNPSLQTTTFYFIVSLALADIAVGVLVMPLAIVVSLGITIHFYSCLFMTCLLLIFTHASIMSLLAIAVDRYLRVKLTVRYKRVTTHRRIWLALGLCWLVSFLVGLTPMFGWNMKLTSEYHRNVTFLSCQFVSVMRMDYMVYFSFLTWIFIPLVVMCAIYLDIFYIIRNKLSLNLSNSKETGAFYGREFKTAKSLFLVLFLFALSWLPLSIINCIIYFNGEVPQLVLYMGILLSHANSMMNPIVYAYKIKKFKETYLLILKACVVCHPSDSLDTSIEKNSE

[4] = target: T4, Adenosine receptor A2b (Homo sapiens, UniProt P29275); experiment: Displacement of [3H]DPCPX from human recombinant adenosine A2B receptor expressed in HEK293 cells after 30 mins; format: cell-based
T4 sequence (P29275 whole entry): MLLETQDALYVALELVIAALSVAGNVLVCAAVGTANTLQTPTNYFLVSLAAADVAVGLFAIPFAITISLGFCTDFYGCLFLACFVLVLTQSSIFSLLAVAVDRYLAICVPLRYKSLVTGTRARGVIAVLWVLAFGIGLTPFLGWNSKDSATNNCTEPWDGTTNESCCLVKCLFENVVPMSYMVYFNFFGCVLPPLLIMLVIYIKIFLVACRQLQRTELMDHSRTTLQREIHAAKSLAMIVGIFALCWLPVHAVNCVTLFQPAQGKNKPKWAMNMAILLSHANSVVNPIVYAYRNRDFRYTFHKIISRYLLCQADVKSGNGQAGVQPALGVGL

[5] = target: T5, Adenosine receptor A2b (Homo sapiens) (UniProt P29275); experiment: Displacement of [3H]DPCPX from human recombinant adenosine A2B receptor expressed in HEK293 cells at 1 uM after 30 mins; format: cell-based
T5 sequence (whole entry): T4 sequence (P29275 whole entry)

[6] = target: T6, Adenosine receptor A1 (Homo sapiens, UniProt P30542); experiment: Displacement of [3H]DPCPX from human recombinant adenosine A1 receptor expressed in CHO-A1 cells after 60 mins; format: cell-based
T6 sequence (P30542 whole entry): T2 sequence (whole entry)

[7] = organism: Homo sapiens; experiment: Selectivity ratio of Ki for human recombinant adenosine A2B receptor to Ki for human recombinant adenosine A1 receptor
[8] = target: T1, Adenosine receptor A2a; experiment: Displacement of [3H]ZM241385 from human recombinant adenosine A2A receptor expressed in human HeLa cells after 30 mins; format: cell-based
[9] = organism: Homo sapiens; experiment: Selectivity ratio of Ki for human recombinant adenosine A2B receptor to Ki for human recombinant adenosine A2A receptor

T1 sequence (P29274 whole entry): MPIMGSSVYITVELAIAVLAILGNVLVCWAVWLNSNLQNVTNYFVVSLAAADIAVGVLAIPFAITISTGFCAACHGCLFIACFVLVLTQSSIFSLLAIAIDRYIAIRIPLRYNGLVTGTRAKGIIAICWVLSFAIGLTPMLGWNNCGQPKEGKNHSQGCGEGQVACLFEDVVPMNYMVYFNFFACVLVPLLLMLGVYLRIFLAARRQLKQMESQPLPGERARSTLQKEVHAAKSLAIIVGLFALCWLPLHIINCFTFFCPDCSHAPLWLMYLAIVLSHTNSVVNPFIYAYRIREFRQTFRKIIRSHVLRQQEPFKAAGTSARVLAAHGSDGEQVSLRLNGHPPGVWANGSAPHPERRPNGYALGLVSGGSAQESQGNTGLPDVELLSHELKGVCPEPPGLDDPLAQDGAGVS

inhibition [1]	inhibition [2]	inhibition [3]	Ki [4]	inhibition [5]	Ki [6]	Ratio pKi [7]	Ki [8]	Ratio pKi [9]	Structure (SMILES)
12%	9%	1%	0.0794 µM	–	–	–	–	–	CCCn1c(=O)[nH]c(=O)c2[nH]c(-c3ccc(OCC(=O)N4CCc5ccccc5C4)cc3)cc21
36%	2%	3%	0.1 µM	–	–	–	–	–	CCCn1c(=O)[nH]c(=O)c2[nH]c(-c3ccc(OCC(=O)Nc4ccc(F)cc4)cc3)cc21
15%	9%	1%	–	20%	–	–	–	–	CCCn1c(=O)c2c(cc(-c3ccc(OCC(=O)Nc4ccc(F)cc4)cc3)n2C)n(CCC)c1=O
29%	19%	9%	0.0977 µM	–	–	–	–	–	CCCn1c(=O)c2c(cc(-c3ccc(OCC(=O)N4CCc5ccccc5C4)cc3)n2C)n(CCC)c1=O
33%	23%	15%	0.115 µM	–	–	–	–	–	CCCn1c(=O)[nH]c(=O)c2[nH]c(-c3ccc(OCC(=O)N4CCN(c5ccccc5)CC4)cc3)cc21
22%	22%	2%	–	36%	–	–	–	–	CCCn1c(=O)c2c(cc(-c3ccc(OCC(=O)N4CCN(c5ccccc5)CC4)cc3)n2C)n(CCC)c1=O
43%	–	14%	0.00355 µM	–	0.00174 µM	0.49	–	–	CCCn1c(=O)[nH]c2cc(-c3ccc(OCC(=O)Nc4ccc(Br)cc4)cc3)[nH]c2c1=O
11%	–	6%	0.0309 µM	–	–	5.89	–	–	CCCn1c(=O)c2c(cc(-c3ccc(OCC(=O)Nc4ccc(F)cc4)cc3)n2C)n(C)c1=O
22%	41%	28%	0.0219 µM	–	–	–	–	–	CCCn1c(=O)[nH]c(=O)c2[nH]c(-c3ccc(OCC(=O)Nc4ccc(Br)cc4)cc3)cc21
–	–	2%	0.00234 µM	–	0.0759 µM	32.4	6.46 µM	2750	CCCn1c(=O)[nH]c2cc(-c3ccc(OCC(=O)Nc4ccc(F)cc4)cc3)[nH]c2c1=O
11%	21%	2%	0.0316 µM	–	–	–	–	–	CCCn1c(=O)[nH]c2cc(-c3ccc(OCc4nc(-c5ccc(Br)cc5)no4)cc3)[nH]c2c1=O
–	36%	3%	0.0407 µM	–	0.182 µM	–	0.708 µM	17.4	COc1cc(OCc2nc(-c3ccc(Br)cc3)no2)ccc1-c1cc2c([nH]1)c(=O)n(C)c(=O)n2C
17%	0.5%	1%	1.05 µM	–	–	–	–	–	CCCn1c(=O)[nH]c(=O)c2[nH]c(-c3ccc(OCC(=O)Nc4ccccc4)cc3)cc21
